Test results taken from patent publication US20260217716A1, “ANDROGEN RECEPTOR MODULATORS AND METHODS FOR THEIR USE” (Capulus Therapeutics, LLC, priority 2022, published 2026).
Residue numbers refer to the chain shown, from its start.

How the values were obtained:
[1] = Human liver microsome stability; type: in vitro ADME; details: Table 6, human liver microsomes, 1 μM
Description: (§1) Preincubation mixture 2.5 μL Test Cpd. +75 μL Liver microsomes (human or mouse source) @ 3.33 mg/mL+85 µL of 100 mM potassium phosphate buffer (preincubate for 10 min @ 37° C.). Incubation mixture 62 μL of cofactor (2.85 mM)+Remaining incubation mixture (Incubated for 60 min @ 37° C.). Sample preparation 25 μL incubation mixture+200 μL of acetonitrile containing internal standard+Vortex 5 min @ 1200 rpm+Centrifuge 10 min @ 4000 rpm. Supernatant diluted 2-fold with water and injected on LC-MS/MS.

human AR = molecular target: T1, human AR (Homo sapiens, UniProt P10275); assay: Indigo Biosciences AR reporter cell assay (AR inhibition, antagonist mode); type: cell-based; details: Table 2; luciferase reporter cells, 24 hr, EC80 of agonist 5α-dihydro-11-keto testosterone; read-out: AR Inhibition Indigo Cell Based: Avg IC50
T1 construct: Reporter Cells used in these assays expressed a native receptor (AR)
T1 sequence (P10275 1-920): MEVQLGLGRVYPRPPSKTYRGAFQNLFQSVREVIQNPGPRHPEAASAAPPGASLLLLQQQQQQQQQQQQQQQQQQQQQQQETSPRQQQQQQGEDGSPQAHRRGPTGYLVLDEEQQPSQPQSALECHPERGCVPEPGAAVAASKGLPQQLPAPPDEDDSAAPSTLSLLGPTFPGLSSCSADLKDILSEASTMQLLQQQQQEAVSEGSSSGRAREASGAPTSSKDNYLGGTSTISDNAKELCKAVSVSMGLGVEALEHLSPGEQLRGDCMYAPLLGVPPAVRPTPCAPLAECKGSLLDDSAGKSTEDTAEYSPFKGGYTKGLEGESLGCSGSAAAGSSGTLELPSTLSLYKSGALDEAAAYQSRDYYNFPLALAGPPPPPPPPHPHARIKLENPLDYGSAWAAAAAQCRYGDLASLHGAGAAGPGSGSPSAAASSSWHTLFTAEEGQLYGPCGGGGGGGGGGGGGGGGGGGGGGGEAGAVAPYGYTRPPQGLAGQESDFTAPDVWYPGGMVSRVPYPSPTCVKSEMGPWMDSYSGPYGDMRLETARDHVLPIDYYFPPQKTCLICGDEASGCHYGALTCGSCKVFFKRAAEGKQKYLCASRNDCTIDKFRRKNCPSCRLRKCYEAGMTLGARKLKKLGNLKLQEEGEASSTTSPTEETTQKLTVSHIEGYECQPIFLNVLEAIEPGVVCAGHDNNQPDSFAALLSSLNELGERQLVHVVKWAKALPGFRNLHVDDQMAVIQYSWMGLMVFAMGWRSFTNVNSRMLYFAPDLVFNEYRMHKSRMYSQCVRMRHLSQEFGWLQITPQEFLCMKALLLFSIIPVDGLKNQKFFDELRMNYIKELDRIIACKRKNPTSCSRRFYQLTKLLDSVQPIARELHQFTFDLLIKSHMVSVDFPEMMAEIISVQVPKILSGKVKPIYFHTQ
Description: The aim of this study was to evaluate compounds 1-12 and the comparative compounds 1-2 for inhibition activities against human AR. Reporter Cells used in these assays expressed a native receptor (AR). The reporter gene, firefly luciferase, is functionally linked to an upstream receptor-specific genetic response element (GRE). Reporter cells were treated with eight concentrations, starting at 50 μM and following with 3.17-fold dilutions. Single treatment concentration was performed (n=1). Assay performance was validated using the reference antagonist hydroxy flutamide. • Step 1: A suspension of reporter cells was prepared in Cell Recovery Medium (CRM). Reporter cells were first supplemented with 2×-EC80 concentration of the reference agonist, 5α-dihydro-11-keto testosterone, then 100 μl of the Reporter Cell suspension was dispensed into wells of a white 96-well assay plate. • Step 2: Test compound master stocks were diluted in DMSO to generate solutions at ‘500×-concentration’ relative to the final treatment concentration and diluted directly into INDIGO's Compound Screening Medium (CSM; containing charcoal-stripped FBS) to generate ‘2×-concentration’ treatment media. This was diluted into the wells to the final concentration. Assay plates were incubated at 37° C., 5% CO2 and ~70% humidity for 24 hr. • Step 3: Following the incubation period, wells were rinsed once with Live Cell Multiplex (LCM) Buffer, then LCM substrate was added. Following incubation at room temperature for 15 min, LCM substrate was discarded and 100 μL/well of luciferase detection reagent was added. Subsequently, fluorescence was measured to determine the relative number of live cells per assay well. RLU values were quantified after a 10 min incubation period at room temperature to determine nuclear receptor activities.

Human androgen receptors = molecular target: T2, Human androgen receptors (Homo sapiens, UniProt P10275, T878A); assay: Biochemical AR LBD antagonism (Eurofins AR radioligand binding assay); details: Table 4; read-out: Biochemical AR LBD Antagonism: Average IC50
T2 construct: Human androgen receptors obtained from human LNCaP cells were used; host or cells: human LNCaP cells
T2 sequence (P10275 1-920 T878A): T1 sequence (P10275 1-920) with T878A
Description: Human androgen receptors obtained from human LNCaP cells were used in modified HEPES buffer pH 7.4. A 70 μg‡ aliquot was incubated with 0.5 nM [3H] Methyltrienolone for 20 h at 4° C. Non-specific binding was estimated in the presence of 1 μM testosterone. Receptors were filtered and washed, the filters were then counted to determine [3H] Methyltrienolone specifically bound. Compounds were screened at 10 μM.
Furthermore, as noted earlier, most clinically relevant AR inhibitors target the ligand binding domain (LBD) of the androgen receptor, and these inhibitors can lose efficacy due to point mutations in the LBD. Given that the AR protein contains multiple sub-domains, targeting other domains is an attractive approach for new inhibitors. […] Therefore, the compounds as described herein may be interacting with other subdomains in the AR protein, namely the N-terminal domain.

[2] = Mouse liver microsome stability; type: in vitro ADME; details: Table 6, mouse liver microsomes, 1 μM
Description: as §1

- Human LM: Rem @ 60 min [1]: +++ (>60.1: “+++”)
- IC50 (human AR): < 50 nM
- IC50 (Human androgen receptors): > 501 nM
- Mouse LM: Rem @ 60 min [2]: +++ (>60.1: “+++”)
SMILES: C[C@@H](Nc1ccc2nnc(C(F)(F)F)n2n1)c1cc(F)cc(F)c1 [Compound 2, (R)—N-(1-(3,5-difluorophenyl)ethyl)-3-(trifluoromethyl)-[1,2,4]triazolo[4,3-b]pyridazin-6-amine]
